Test results taken from paper PMC5007443, “TNIK inhibition abrogates colorectal cancer stemness” (Nature Communications, 2016).
“And” between values parts separate entries of the source, which are not always exact repeats. Equal entries are not always repeated.

Key:
[1] = system: patient-derived colorectal cancer spheroids #19; experiment: ATP production of patient-derived spheroid #19; assay type: cell-based; conditions: Homo sapiens, 72 h; spheroid #19, 3 days
Method: Cells were seeded at a density of 3,000 cells per well in 96-well plates. Twenty-four hours after seeding, the cells were exposed to serially diluted compounds (0.003, 0.01, 0.03, 0.1, 0.3, 1, 3 and 10 μM) and incubated for 72 h (Fig. 3a). Patient-derived colorectal cancer spheroids were dissociated into single cells with Accutase (Nacalai Tesque) and seeded at a density of 3,000 cells per well into Ultra-Low attachment multiwall 96-well plates (Corning; Fig. 6d). ATP was measured with a CellTiter-Glo Luminescent Cell Viability Assay kit (Promega). Experiments were performed in triplicate and repeated at least two times.

[2] = biological target: PDGFRα (Homo sapiens, UniProt P16234); experiment: Kinase selectivity profiling, Platelet-derived growth factor receptor α; assay type: biochemical; conditions: 0.1 µM inhibitor, ATP at Km; for inhibition at 0.1 µM: read-out: Percentage inhibition of PDGFRα
Method: (§1) The selectivity of compounds against a panel of 50 human protein kinases was assessed using a non-radiometric assay.

[3] = biological target: MAPKAPK2 (Homo sapiens, UniProt P49137); experiment: Kinase selectivity profiling, Mitogen-activated protein kinase-activated protein kinase 2; assay type: biochemical; conditions: read-out: Percentage inhibition of MAPKAPK2
Method: as §1

[4] = biological target: ROCK1 (Homo sapiens, UniProt Q13464); experiment: Kinase selectivity profiling, Rho-associated, coiled-coil containing protein kinase 1; assay type: biochemical; conditions: read-out: Percentage inhibition of ROCK1
Method: as §1

[5] = biological target: EPHA4 (Homo sapiens, UniProt P54764); experiment: Kinase selectivity profiling, EPH receptor A4; assay type: biochemical; conditions: read-out: Percentage inhibition of EPHA4
Method: as §1

[6] = biological target: MST1 (Homo sapiens, UniProt Q13043); experiment: Kinase selectivity profiling; assay type: biochemical; conditions: read-out: Percentage inhibition of MST1
Method: as §1

[7] = biological target: PDK1 (Homo sapiens, UniProt O15530); experiment: Kinase selectivity profiling; assay type: biochemical; conditions: read-out: Percentage inhibition of PDK1
Method: as §1

[8] = biological target: PKD2 (Homo sapiens, UniProt Q9BZL6); experiment: Kinase selectivity profiling; assay type: biochemical; conditions: read-out: Percentage inhibition of PKD2
Method: as §1

[9] = biological target: AMPKα1/β1/γ1 (Homo sapiens, UniProt Q13131); experiment: Kinase selectivity profiling, AMP-activated protein kinase; assay type: biochemical; conditions: read-out: Percentage inhibition of AMPKα1/β1/γ1
Method: as §1

[10] = biological target: CSK (Homo sapiens, UniProt P41240); experiment: Kinase selectivity profiling, c-Src tyrosine kinase; assay type: biochemical; conditions: read-out: Percentage inhibition of CSK
Method: as §1

[11] = biological target: TIE2 (Homo sapiens, UniProt Q02763); experiment: Kinase selectivity profiling, TEK tyrosine kinase; assay type: biochemical; conditions: read-out: Percentage inhibition of TIE2
Method: as §1

[12] = biological target: PKACα (Homo sapiens, UniProt P17612); experiment: Kinase selectivity profiling, cAMP-dependent protein kinase, catalytic subunit α; assay type: biochemical; conditions: read-out: Percentage inhibition of PKACα
Method: as §1

[13] = biological target: PBK (Homo sapiens, UniProt Q96KB5); experiment: Kinase selectivity profiling, PDZ binding kinase; assay type: biochemical; conditions: read-out: Percentage inhibition of PBK
Method: as §1

[14] = biological target: ABL (Homo sapiens, UniProt P00519); experiment: Kinase selectivity profiling, c-Abl oncogene 1; assay type: biochemical; conditions: read-out: Percentage inhibition of ABL
Method: as §1

[15] = biological target: CHK1 (Homo sapiens, UniProt O14757); experiment: Kinase selectivity profiling, Checkpoint kinase 1; assay type: biochemical; conditions: read-out: Percentage inhibition of CHK1
Method: as §1

[16] = biological target: TRKA (Homo sapiens, UniProt P04629); experiment: Kinase selectivity profiling, Tropomyosin receptor kinase A; assay type: biochemical; conditions: 0.1 µM inhibitor, ATP at Km; for inhibition at 0.1 µM: read-out: Percentage inhibition of TRKA
Method: as §1

[17] = biological target: EGFR (Homo sapiens, UniProt P00533); experiment: Kinase selectivity profiling, Epidermal growth factor receptor; assay type: biochemical; conditions: read-out: Percentage inhibition of EGFR
Method: as §1

[18] = biological target: FLT3 (Homo sapiens, UniProt P36888); experiment: Kinase selectivity profiling, Fms-related tyrosine kinase 3; assay type: biochemical; conditions: 0.1 µM inhibitor, ATP at Km
Method: as §1

[19] = biological target: CaMK4 (Homo sapiens, UniProt Q16566); experiment: Kinase selectivity profiling, Calcium/calmodulin-dependent protein kinase IV; assay type: biochemical; conditions: read-out: Percentage inhibition of CaMK4
Method: as §1

[20] = system: HCT116 cells; experiment: In vivo tumorigenicity of pretreated HCT116 cells in NOD/ShiJic-scid mice; design: species or system mouse; conditions: HCT116, short-term in vitro treatment
Method: After washing off the compounds, 10,000, 1,000, 100 or 10 viable cells in culture medium containing 50% Matrigel (BD Biosciences) were injected subcutaneously into the flanks of NOD/ShiJic-scid Jcl (6-week-old male) mice. The number of mice that developed tumours was counted, and the frequency of cells with tumour-forming capability was calculated using the ELDA software.

[21] = biological target: NEK2 (Homo sapiens, UniProt P51955); experiment: Kinase selectivity profiling, Never in mitosis gene A-related kinase 2; assay type: biochemical; conditions: read-out: Percentage inhibition of NEK2
Method: as §1

[22] = system: Spheroid #6; experiment: ALDH activity of spheroid #6; assay type: cell-based, human; conditions: spheroid #6, 1 μM, 48 hr
Method: Cells with ALDH activity were detected using an Aldefluor kit (Stem Cell Technologies) in accordance with the manufacturer's instructions. Briefly, cells were incubated in Aldefluor assay buffer containing ALDH substrate for 30 min at 37 °C. As a negative control, an aliquot of each sample was treated with 50 mM diethylaminobenzaldehyde (DEAB) to block ALDH activity. Cells were analysed with a Guava easy Cyte HT flow cytometer. Data analysis was performed using the Guava InCyte software. The analysis was performed in triplicate and repeated at least two times.

[23] = biological target: SRC (Homo sapiens, UniProt P12931); experiment: Kinase selectivity profiling, v-Src sarcoma viral oncogene homolog; assay type: biochemical; conditions: read-out: Percentage inhibition of SRC
Method: as §1

[24] = biological target: AKT1 (Homo sapiens, UniProt P31749); experiment: Kinase selectivity profiling, v-Akt murine thymoma viral oncogene homolog 1; assay type: biochemical; conditions: read-out: Percentage inhibition of AKT1
Method: as §1

[25] = biological target: IKKβ (Homo sapiens, UniProt O14920); experiment: Kinase selectivity profiling, I-kappa-B kinase-β; assay type: biochemical; conditions: read-out: Percentage inhibition of IKKβ
Method: as §1

[26] = biological target: EPHA2 (Homo sapiens, UniProt P29317); experiment: Kinase selectivity profiling, EPH receptor A2; assay type: biochemical; conditions: read-out: Percentage inhibition of EPHA2
Method: as §1

[27] = biological target: p70S6K (Homo sapiens, UniProt P23443); experiment: Kinase selectivity profiling, Ribosomal protein S6 kinase; assay type: biochemical; conditions: read-out: Percentage inhibition of p70S6K
Method: as §1

[28] = biological target: IRAK4 (Homo sapiens, UniProt Q9NWZ3); experiment: Kinase selectivity profiling, Interleukin 1 receptor-associated kinase 4; assay type: biochemical; conditions: read-out: Percentage inhibition of IRAK4
Method: as §1

[29] = biological target: HGK (Homo sapiens, UniProt O95819); experiment: Kinase selectivity profiling, Hematopoietic progenitor kinase; assay type: biochemical; conditions: 0.1 µM inhibitor, ATP at Km; for inhibition at 0.1 µM: read-out: Percentage inhibition of HGK
Method: as §1

PDGFRα, sequence (P16234 24-1089): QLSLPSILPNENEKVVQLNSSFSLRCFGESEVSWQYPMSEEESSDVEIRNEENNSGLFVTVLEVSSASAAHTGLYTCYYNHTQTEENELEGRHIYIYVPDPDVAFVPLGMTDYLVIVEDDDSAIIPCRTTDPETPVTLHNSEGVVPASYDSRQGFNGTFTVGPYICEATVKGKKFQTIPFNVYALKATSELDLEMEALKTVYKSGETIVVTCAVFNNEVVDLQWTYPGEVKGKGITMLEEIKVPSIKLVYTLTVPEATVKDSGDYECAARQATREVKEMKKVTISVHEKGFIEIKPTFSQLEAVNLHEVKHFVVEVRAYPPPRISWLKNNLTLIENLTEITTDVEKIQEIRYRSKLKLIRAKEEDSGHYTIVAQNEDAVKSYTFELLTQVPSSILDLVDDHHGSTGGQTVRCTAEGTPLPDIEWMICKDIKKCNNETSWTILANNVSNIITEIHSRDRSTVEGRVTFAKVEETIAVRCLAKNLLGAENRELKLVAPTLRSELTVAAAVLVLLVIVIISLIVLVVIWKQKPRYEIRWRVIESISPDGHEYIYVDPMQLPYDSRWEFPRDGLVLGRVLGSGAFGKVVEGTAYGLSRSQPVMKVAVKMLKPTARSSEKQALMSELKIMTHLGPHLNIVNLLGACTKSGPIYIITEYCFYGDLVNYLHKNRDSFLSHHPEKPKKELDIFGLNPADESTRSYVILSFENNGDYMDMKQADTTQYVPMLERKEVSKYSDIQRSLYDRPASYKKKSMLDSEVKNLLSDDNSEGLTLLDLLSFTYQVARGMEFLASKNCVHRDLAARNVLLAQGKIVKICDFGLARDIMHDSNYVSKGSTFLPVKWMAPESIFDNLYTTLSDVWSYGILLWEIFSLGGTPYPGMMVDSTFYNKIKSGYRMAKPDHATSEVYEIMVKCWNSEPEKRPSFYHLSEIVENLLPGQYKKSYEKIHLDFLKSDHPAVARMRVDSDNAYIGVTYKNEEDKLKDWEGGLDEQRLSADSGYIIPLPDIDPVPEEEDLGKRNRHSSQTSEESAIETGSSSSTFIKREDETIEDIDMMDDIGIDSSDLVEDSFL
TRKA, sequence (P04629 33-796): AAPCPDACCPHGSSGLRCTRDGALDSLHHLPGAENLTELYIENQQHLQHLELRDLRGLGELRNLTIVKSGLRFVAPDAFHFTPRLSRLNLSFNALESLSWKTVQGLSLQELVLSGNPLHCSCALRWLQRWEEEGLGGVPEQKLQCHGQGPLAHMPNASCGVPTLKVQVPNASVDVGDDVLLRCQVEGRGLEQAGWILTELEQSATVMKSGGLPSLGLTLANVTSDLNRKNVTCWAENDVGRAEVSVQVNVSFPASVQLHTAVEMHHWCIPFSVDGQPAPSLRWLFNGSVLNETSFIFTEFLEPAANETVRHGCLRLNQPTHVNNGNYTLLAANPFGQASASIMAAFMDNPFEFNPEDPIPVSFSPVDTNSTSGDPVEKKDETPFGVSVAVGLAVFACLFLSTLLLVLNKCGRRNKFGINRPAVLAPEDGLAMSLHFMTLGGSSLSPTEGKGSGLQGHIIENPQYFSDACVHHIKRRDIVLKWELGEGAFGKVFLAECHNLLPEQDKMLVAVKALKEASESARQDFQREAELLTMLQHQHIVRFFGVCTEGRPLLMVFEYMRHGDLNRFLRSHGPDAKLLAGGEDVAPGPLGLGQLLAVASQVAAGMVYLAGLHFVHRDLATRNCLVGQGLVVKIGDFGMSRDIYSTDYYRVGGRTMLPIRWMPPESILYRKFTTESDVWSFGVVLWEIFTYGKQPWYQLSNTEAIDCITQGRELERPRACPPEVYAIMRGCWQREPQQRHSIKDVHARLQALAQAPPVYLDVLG
FLT3, sequence (P36888 27-993): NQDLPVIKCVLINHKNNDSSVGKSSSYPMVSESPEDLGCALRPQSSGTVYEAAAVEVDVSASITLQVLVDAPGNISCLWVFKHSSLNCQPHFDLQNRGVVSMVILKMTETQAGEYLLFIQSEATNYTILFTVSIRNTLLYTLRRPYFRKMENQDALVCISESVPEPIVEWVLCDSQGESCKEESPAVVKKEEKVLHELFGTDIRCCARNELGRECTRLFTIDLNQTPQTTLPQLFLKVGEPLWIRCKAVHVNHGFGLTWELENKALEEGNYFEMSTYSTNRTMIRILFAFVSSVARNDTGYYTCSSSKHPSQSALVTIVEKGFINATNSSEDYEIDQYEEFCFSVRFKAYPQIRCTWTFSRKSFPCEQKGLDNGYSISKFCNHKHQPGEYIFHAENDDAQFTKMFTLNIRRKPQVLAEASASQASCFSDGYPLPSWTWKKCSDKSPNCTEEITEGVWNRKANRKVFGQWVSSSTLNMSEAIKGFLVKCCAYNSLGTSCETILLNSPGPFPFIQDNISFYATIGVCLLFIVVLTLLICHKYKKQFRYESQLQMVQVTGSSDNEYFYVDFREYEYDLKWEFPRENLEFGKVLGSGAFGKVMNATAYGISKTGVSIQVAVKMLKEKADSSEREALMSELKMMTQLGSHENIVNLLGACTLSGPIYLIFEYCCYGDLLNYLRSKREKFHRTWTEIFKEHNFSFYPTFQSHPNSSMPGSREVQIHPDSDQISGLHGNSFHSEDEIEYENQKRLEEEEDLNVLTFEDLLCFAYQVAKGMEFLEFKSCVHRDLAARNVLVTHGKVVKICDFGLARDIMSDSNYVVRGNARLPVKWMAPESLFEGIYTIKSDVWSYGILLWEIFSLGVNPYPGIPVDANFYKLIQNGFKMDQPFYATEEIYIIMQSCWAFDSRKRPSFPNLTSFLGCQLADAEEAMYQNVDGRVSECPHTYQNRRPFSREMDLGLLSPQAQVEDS
HGK, sequence (O95819 whole entry): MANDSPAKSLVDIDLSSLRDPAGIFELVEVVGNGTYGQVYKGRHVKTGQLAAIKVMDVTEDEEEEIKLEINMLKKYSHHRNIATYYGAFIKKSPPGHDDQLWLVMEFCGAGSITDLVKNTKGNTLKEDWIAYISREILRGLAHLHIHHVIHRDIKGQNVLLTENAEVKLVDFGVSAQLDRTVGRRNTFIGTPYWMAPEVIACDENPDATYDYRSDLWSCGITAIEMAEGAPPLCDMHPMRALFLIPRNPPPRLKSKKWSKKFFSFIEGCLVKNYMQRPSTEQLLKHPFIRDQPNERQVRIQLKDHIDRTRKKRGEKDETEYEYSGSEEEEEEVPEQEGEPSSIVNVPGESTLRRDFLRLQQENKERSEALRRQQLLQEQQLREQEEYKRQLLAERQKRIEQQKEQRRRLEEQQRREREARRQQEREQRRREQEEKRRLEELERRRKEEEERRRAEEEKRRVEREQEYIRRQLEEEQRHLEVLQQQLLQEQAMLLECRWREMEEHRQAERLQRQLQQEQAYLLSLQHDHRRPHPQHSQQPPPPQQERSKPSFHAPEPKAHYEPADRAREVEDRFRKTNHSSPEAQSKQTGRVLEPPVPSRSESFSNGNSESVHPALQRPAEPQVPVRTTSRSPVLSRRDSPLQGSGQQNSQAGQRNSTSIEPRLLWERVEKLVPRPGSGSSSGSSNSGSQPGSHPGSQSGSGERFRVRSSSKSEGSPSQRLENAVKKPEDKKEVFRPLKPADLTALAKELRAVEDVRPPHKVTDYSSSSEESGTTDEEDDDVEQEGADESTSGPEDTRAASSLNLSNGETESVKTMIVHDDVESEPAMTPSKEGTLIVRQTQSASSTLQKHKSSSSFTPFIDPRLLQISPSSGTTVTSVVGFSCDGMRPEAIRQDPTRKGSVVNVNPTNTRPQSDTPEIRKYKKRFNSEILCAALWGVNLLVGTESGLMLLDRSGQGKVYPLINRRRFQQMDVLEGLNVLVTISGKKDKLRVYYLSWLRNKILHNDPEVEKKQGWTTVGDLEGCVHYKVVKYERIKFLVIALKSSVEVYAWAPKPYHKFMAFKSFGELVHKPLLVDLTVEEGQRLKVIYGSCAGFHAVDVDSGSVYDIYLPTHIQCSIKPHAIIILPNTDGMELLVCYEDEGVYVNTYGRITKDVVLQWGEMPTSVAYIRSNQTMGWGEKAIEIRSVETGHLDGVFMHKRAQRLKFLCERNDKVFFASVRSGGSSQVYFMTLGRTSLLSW
AKT1, sequence (P31749 whole entry): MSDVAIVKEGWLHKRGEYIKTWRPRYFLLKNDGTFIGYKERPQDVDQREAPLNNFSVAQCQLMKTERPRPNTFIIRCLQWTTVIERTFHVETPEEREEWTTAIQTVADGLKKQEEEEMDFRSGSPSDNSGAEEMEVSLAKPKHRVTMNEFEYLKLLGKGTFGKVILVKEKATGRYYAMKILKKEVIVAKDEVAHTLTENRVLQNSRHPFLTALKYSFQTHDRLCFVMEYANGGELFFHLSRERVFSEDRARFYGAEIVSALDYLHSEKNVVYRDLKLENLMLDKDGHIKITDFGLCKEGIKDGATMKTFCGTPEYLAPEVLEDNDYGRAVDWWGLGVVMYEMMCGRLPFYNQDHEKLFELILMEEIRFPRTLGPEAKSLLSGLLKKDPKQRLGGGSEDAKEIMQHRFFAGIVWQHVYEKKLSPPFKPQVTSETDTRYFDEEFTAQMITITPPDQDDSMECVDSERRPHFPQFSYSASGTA
MAPKAPK2, sequence (P49137 whole entry): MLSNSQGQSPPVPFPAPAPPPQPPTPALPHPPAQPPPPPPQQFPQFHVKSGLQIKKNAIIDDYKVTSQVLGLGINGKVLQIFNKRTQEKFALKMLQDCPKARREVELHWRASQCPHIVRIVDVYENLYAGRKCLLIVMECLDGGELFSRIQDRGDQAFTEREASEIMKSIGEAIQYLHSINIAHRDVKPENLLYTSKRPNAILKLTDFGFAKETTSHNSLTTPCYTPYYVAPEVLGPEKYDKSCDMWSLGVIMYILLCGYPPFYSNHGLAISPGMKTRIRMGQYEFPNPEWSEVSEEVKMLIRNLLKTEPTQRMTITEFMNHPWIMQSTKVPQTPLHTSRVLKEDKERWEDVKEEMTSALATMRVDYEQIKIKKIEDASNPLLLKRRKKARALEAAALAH

SMILES	IC50 [1] [µM]	inhibition at 0.1 µM [2] [%]	inhibition at 0.1 µM [3] [%]	inhibition at 0.1 µM [4] [%]	inhibition at 0.1 µM [5] [%]	inhibition at 0.1 µM [6] [%]	inhibition at 0.1 µM [7] [%]	inhibition at 0.1 µM [8] [%]	inhibition at 0.1 µM [9] [%]	inhibition at 0.1 µM [10] [%]	inhibition at 0.1 µM [11] [%]	inhibition at 0.1 µM [12] [%]	inhibition at 0.1 µM [13] [%]	inhibition at 0.1 µM [14] [%]	inhibition at 0.1 µM [15] [%]	inhibition at 0.1 µM [16] [%]	inhibition at 0.1 µM [17] [%]	inhibition at 0.1 µM [19] [%]	tumour formation [20]	inhibition at 0.1 µM [21] [%]	other results
O[C@H]1CC[C@@H](Oc2cccc3cnc(Nc4ccc5nc[nH]c5c4)nc23)CC1 [NCB-0846, cis-4-(2-(3H-benzo[d]imidazol-5-ylamino)quinazolin-8-yloxy)cyclohexanol]	0.62	> 80	-5.8	20.1	5.5	57.8	2.4	18.8	31.5	-1	4.9	0.9	-3.9	16.9	10.1	> 80	4.8	-1.5	significantly reduced	-3.5	Percentage inhibition of PDGFRα ([2]; 0.1 µM): 89.0%; Percentage inhibition of TRKA ([16]; 0.1 µM): 89.1%; Percentage inhibition of FLT3 ([18]; 0.1 µM): > 80% and 104.1%; percentage of cells with ALDH activity, - DEAB [22]: 19.43%; percentage of cells with ALDH activity, + DEAB [22]: 1.01%; inhibition at 0.1 µM [23]: 19%; inhibition at 0.1 µM [24]: -3.4%; inhibition at 0.1 µM [25]: 6.8%; inhibition at 0.1 µM [26]: 13.6%; inhibition at 0.1 µM [27]: 11%; inhibition at 0.1 µM [28]: 14.7%; Percentage inhibition of HGK ([29]; 0.1 µM): 80.5%; inhibition at 0.1 µM [29]: > 80%
O[C@H]1CC[C@H](Oc2cccc3cnc(Nc4ccc5nc[nH]c5c4)nc23)CC1 [NCB-0970]	> 3	45.6	-9.3	9.7	2.3	14.3	-0.8	1	9.3	-4	-2.8	-4.4	-5.8	3.9	9	81.6	-16.8	-4.1	not	-4.5	inhibition at 0.1 µM ([18]; read-out: Percentage inhibition of FLT3): 102%; percentage of cells with ALDH activity, - DEAB [22]: 44.32%; percentage of cells with ALDH activity, + DEAB [22]: 2.30%; inhibition at 0.1 µM [23]: 14.4%; inhibition at 0.1 µM [24]: -4.4%; inhibition at 0.1 µM [25]: 7.9%; inhibition at 0.1 µM [26]: 8.7%; inhibition at 0.1 µM [27]: 11.4%; inhibition at 0.1 µM [28]: 6.3%; inhibition at 0.1 µM [29]: 21.8%
